In ChEMBL document CHEMBL1145708, “Selective cytotoxicity of ginkgetin from Selaginella moellendorffii” (J Nat Prod, 1997):
≈ marks a conversion by molar mass, not a printed value. Calls of active or inactive are those of the source. The rule behind the calls is not given here.

Assays:
OVCAR-3 [1] = experiment: Growth inhibition of human OVCAR-3 cells upto 10 ug/ml after 48 hrs; format: functional, cell-based
[2] = Growth inhibition of HEK cells; format: cell-based; details: human, hek293
OVCAR-3 [3] = experiment: Growth inhibition of human OVCAR-3 cells after 48 hrs; format: functional, cell-based
HeLa = experiment: Growth inhibition of human HeLa cells; format: functional, cell-based
HepG2 = experiment: Growth inhibition of human HepG2 cells; format: functional, cell-based

COc1ccc(-c2cc(=O)c3c(O)cc(OC)c(-c4cc(-c5cc(=O)c6c(O)cc(O)cc6o5)ccc4OC)c3o2)cc1
Activity (OVCAR-3 [1]): inactive

COc1cc(O)c2c(=O)cc(-c3ccc(OC)c(-c4c(O)cc(O)c5c(=O)cc(-c6ccc(O)cc6)oc45)c3)oc2c1 [GINKGETIN]
Activity [2]: Not Active
Activity (OVCAR-3 [3]): Dose-dependent effect
IC50 (OVCAR-3 [3]; OVCAR-3, 48 h): 1.8 µg/mL (≈ 3.18 µM)
Activity (HeLa): inactive
Activity (HepG2): inactive

COc1ccc(-c2cc(=O)c3c(O)cc(OC)c(-c4cc(-c5cc(=O)c6c(O)cc(OC)cc6o5)ccc4OC)c3o2)cc1
Activity (OVCAR-3 [1]): inactive

O=c1cc(-c2ccc(O)c(-c3c(O)cc(O)c4c(=O)cc(-c5ccc(O)cc5)oc34)c2)oc2cc(O)cc(O)c12
Activity (OVCAR-3 [1]): inactive

COc1ccc(-c2cc(=O)c3c(O)cc(O)c(-c4cc(-c5cc(=O)c6c(O)cc(O)cc6o5)ccc4O)c3o2)cc1
Activity (OVCAR-3 [1]): inactive
